# Experimental data as given in ChEMBL document CHEMBL3046633, “Synthesis and antimycobacterial activities of some new N-acylhydrazone and thiosemicarbazide derivatives of 6-methyl-4,5-dihydropyridazin-3(2H)-one” (2012).
# Test system: Mycobacterium tuberculosis
# Test: Antimycobacterial activity against Mycobacterium tuberculosis by agar dilution method
# Format: functional
row,SMILES,MIC [µM]
1,CC1=NN(CC(=O)N/N=C/c2ccc(Cl)cc2Cl)C(=O)CC1,0.78
2,CC1=NN(CC(=O)N/N=C/c2ccc(C(F)(F)F)cc2)C(=O)CC1,1.56
3,CC1=NN(CC(=O)N/N=C/c2ccc(N(C)C)cc2)C(=O)CC1,12.5
4,CC1=NN(CC(=O)N/N=C/c2ccc(F)cc2)C(=O)CC1,1.56
5,CC1=NN(CC(=O)N/N=C/c2ccco2)C(=O)CC1,> 25
6,CC1=NN(CC(=O)N/N=C/c2cccs2)C(=O)CC1,25
7,CCOc1ccc(/C=N/NC(=O)CN2N=C(C)CCC2=O)cc1,> 25
8,CC1=NN(CC(=O)N/N=C(\C)c2ccccc2)C(=O)CC1,25
9,CC1=NN(CC(=O)N/N=C(\C)c2ccc(Cl)cc2)C(=O)CC1,12.5
10,CC1=NN(CC(=O)N/N=C(\C)c2ccc(Br)cc2)C(=O)CC1,12.5
11,CC1=NN(CC(=O)N/N=C(\C)c2ccc(C)cc2)C(=O)CC1,25
12,COc1ccc(/C(C)=N/NC(=O)CN2N=C(C)CCC2=O)cc1,25
13,CC1=NN(CC(=O)N/N=C(\C)c2ccc([N+](=O)[O-])cc2)C(=O)CC1,12.5
14,CC1=NN(CC(=O)N/N=C(\C)c2ccc(Cl)cc2Cl)C(=O)CC1,12.5
15,CC1=NN(CC(=O)N/N=C(\C)c2ccc(-c3ccccc3)cc2)C(=O)CC1,25
16,CNC(=S)NNC(=O)CN1N=C(C)CCC1=O,> 25
17,CCNC(=S)NNC(=O)CN1N=C(C)CCC1=O,> 25
18,CC1=NN(CC(=O)NNC(=S)Nc2ccccc2)C(=O)CC1,> 25
19,CC1=NN(CC(=O)NN)C(=O)CC1,25
20,CC1=NN(CC(=O)N/N=C/c2ccccc2)C(=O)CC1,12.5
21,CC1=NN(CC(=O)N/N=C/c2ccc(Cl)cc2)C(=O)CC1,3.13
22,CC1=NN(CC(=O)N/N=C/c2ccc(Br)cc2)C(=O)CC1,1.56
23,CC1=NN(CC(=O)N/N=C/c2ccc(C)cc2)C(=O)CC1,12.5
24,COc1ccc(/C=N/NC(=O)CN2N=C(C)CCC2=O)cc1,25
25,CC1=NN(CC(=O)N/N=C/c2ccc([N+](=O)[O-])cc2)C(=O)CC1,6.25
26,O=C(O)c1cn(C2CC2)c2cc(N3CCNCC3)c(F)cc2c1=O [CIPROFLOXACIN],1.56
27,CC[C@@H](CO)NCCN[C@@H](CC)CO [ETHAMBUTOL],1.56
28,NNC(=O)c1ccncc1 [ISONIAZID],0.05
29,CO[C@H]1/C=C/O[C@@]2(C)Oc3c(C)c(O)c4c(O)c(c(/C=N/N5CCN(C)CC5)c(O)c4c3C2=O)NC(=O)/C(C)=C\C=C\[C@H](C)[C@H](O)[C@@H](C)[C@@H](O)[C@@H](C)[C@H](OC(C)=O)[C@@H]1C [RIFAMPIN],0.1
